Measured values reported in patent US20250368952A1, “Methods for Culturing Organoids” (Cellesce Limited, priority 2016, published 2025).
“Also recorded” adds a separate entry of the source.

Test system: ISO50 (Isolation number 50) colorectal cancer organoids
Experiment: Drug titration assay on colorectal cancer organoids cultured in a fed-plate bioreactor (confocal imaging, morphometric analysis)
Format: cell-based
Details: 5 days
Method: ISO50 (Isolation number 50) colorectal cancer organoids were cultured in a fed-plate bioreactor for 3 days, recovered from the MATRIGEL™ and stored frozen at −80° C. They were subsequently revived and used to seed a 384-well plate at a density of 350 organoids per well in 12 μl MATRIGEL™. The organoids were fed with 25 μl growth medium containing 0-2.5 μM MK1775, a WEE1 inhibitor (8 replicates). After 5 days, the organoids were fixed and stained with Hoechst (blue fluorescent stain specific for DNA i.e. nuclei of eukaryotic cells) and phalloidin (pink stain for F-actin). […] The actin filaments are spread throughout the structures, but are more concentrated in the lumen, in the centre of the organoid. Representative organoids are pictured from selected wells at each concentration. The overall shape of organoids in an untreated culture, or at low concentrations of inhibitor, can vary from round and cyst-like to convoluted and branched. […] Morphometric analysis of over 1000 parameters of the organoids confirmed the observations of toxicity.

## C=CCn1c(=O)c2cnc(Nc3ccc(N4CCN(C)CC4)cc3)nc2n1-c1cccc(C(C)(C)O)n1 [MK1775]
0-2.5 μM in growth medium, 384-well plate, 350 organoids per well, 8 replicates, FIG. 3A
  Organoid morphology (confocal imaging, Hoechst and phalloidin staining): cells are shed from the outer layer of the organoid, leading to a loss in complexity and a decrease in the overall size; also recorded: cells are shed from the outer layer of the organoid, leading to a loss of complexity and a decrease in the overall size
0-2.5 μM, FIG. 3B
  Apoptotic nuclei (morphometric analysis): increase with drug concentration
  Nuclei roundness (due to swelling before apoptosis; morphometric analysis): increase with drug concentration
  Organoid size (morphometric analysis): decreases with increasing concentrations of inhibitor
